Reference: PubChem BioAssay (NCI)
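GI50 = concentration required for 50% inhibition of growth. TGI: concentration producing complete growth inhibition.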

How the values were obtained:
Experiment in all cases: NCI tumour cell line growth inhibition, 384-well format
[1] = test system: U251 glioblastoma
[2] = test system: NCI-H226 lung
[3] = test system: NCI-H460 NSCLC
[4] = test system: SR leukemia
[5] = test system: MALME-3M melanoma
[6] = test system: OVCAR-8 ovarian
[7] = test system: UACC-62 melanoma
[8] = test system: A498 renal
[9] = test system: SK-MEL-28 melanoma
[10] = test system: SF-539 CNS
[11] = test system: SNB-19 CNS
[12] = test system: NCI-H322M lung
[13] = test system: SF-295 CNS
[14] = test system: SF-268 CNS
[15] = test system: HCT-15 colon
[16] = test system: SK-OV-3 ovarian
[17] = test system: OVCAR-3 ovarian
[18] = test system: A549 NSCLC
[19] = test system: TK-10 renal
[20] = test system: NCI-H23 lung
[21] = test system: MCF7 breast
[22] = test system: SK-MEL-5 melanoma
[23] = test system: PC-3 prostate
[24] = test system: HS 578T breast
[25] = test system: OVCAR-5 ovarian
[26] = test system: EKVX NSCLC
[27] = test system: MOLT-4 leukemia
[28] = test system: HT29 colon

## CC1(C)CCC2=C(O1)c1ccccc1C(=O)C2=O
[1]
  GI50: 2.01 µM
  TGI: 3.63 µM
[2]
  GI50: 2 µM
  TGI: 3.44 µM
[3]
  GI50: 1.9 µM
  TGI: 3.5 µM
[4]
  GI50: 1.89 µM
  TGI: 3.32 µM
[5]
  GI50: 1.99 µM
  TGI: 3.42 µM
[6]
  GI50: 1.98 µM
  TGI: 3.72 µM
[7]
  GI50: 1.97 µM
  TGI: 3.4 µM
[8]
  GI50: 1.94 µM
  TGI: 3.47 µM
[9]
  GI50: 2.48 µM
  TGI: 3.96 µM
[10]
  GI50: 1.89 µM
  TGI: 3.31 µM
[11]
  GI50: 1.88 µM
  TGI: 3.43 µM
[12]
  GI50: 2.51 µM
  TGI: 5.8 µM
[13]
  GI50: 1.48 µM
  TGI: 2.91 µM
[14]
  GI50: 1.97 µM
  TGI: 3.49 µM
[15]
  GI50: 1.84 µM
  TGI: 3.26 µM
[16]
  GI50: 1.75 µM
  TGI: 3.28 µM
[17]
  GI50: 1.79 µM
  TGI: 3.22 µM
[18]
  GI50: 1.91 µM
  TGI: 3.35 µM
[19]
  GI50: 3.37 µM
  TGI: 10.6 µM
[20]
  GI50: 1.37 µM
  TGI: 2.67 µM
[21]
  GI50: 1.79 µM
  TGI: 3.21 µM
[22]
  GI50: 1.75 µM
  TGI: 3.14 µM
[23]
  GI50: 2.14 µM
  TGI: 4.98 µM
[24]
  GI50: 1.7 µM
  TGI: 3.08 µM
[25]
  GI50: 1.62 µM
  TGI: 2.99 µM
[26]
  GI50: 1.75 µM
  TGI: 3.15 µM
[27]
  GI50: 1.76 µM
  TGI: 3.17 µM
[28]
  GI50: 1.88 µM
  TGI: 3.31 µM
